Experimental data from PubChem BioAssay (NCI).
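All cell lines were grown in 96-well plates and treated with compound for 48 hours. Here, GI50 denotes the concentration required for 50% inhibition of growth. TGI is the concentration that stops growth completely.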

Tests used:
Assay in all cases: DTP human tumour cell line panel, 48 h
UACC-62 melanoma = test system: UACC-62 melanoma
SF-539 CNS = test system: SF-539 CNS
HCT-116 colon = test system: HCT-116 colon
NCI-H23 lung = test system: NCI-H23 lung
MCF7 breast = test system: MCF7 breast
HS 578T breast = test system: HS 578T breast
SF-295 CNS = test system: SF-295 CNS
NCI-H460 lung = test system: NCI-H460 lung
SW-620 colon = test system: SW-620 colon

Structure (SMILES) | TGI (UACC-62 melanoma) [µM] | TGI (SF-539 CNS) [µM] | TGI (HCT-116 colon) [µM] | TGI (NCI-H23 lung) [µM] | TGI (MCF7 breast) [µM] | TGI (HS 578T breast) [µM] | TGI (SF-295 CNS) [µM] | TGI (NCI-H460 lung) [µM] | TGI (SW-620 colon) [µM] | GI50 (SF-539 CNS) [µM] | GI50 (HCT-116 colon) [µM] | GI50 (NCI-H23 lung) [µM] | GI50 (MCF7 breast) [µM] | GI50 (HS 578T breast) [µM] | GI50 (SF-295 CNS) [µM] | GI50 (NCI-H460 lung) [µM] | GI50 (SW-620 colon) [µM]
CC1(C)C/C=C\CCC(O)C(O)CCC(C)(C)C1=O (stereo not drawn) | > 100 | > 100 | > 100 | > 100 | > 100 | > 100 | > 100 | > 100 | > 100 |  |  |  |  |  |  |  | 
FC(F)(F)c1ccc(N=NN2CCCC2)cc1 | > 100 | > 100 | > 100 | > 100 | > 100 | > 100 | > 100 | > 100 | > 100 |  |  |  |  |  |  |  | 
CNC(=S)c1nnsc1N | > 100 | > 100 | > 100 | > 100 | > 100 | > 100 | > 100 | 41.5 | > 100 |  |  |  |  |  |  |  | 
Cc1cccc2c1CC1(Cc3c(C)cccc3C1=O)C2=O |  | > 100 | > 100 | > 100 | > 100 | > 100 | > 100 | > 100 | > 100 |  |  |  |  |  |  |  | 
CCN(CC)CCCNc1c2cc(OC)ccc2nc2cccc([N+](=O)[O-])c12 | 0.359 | 0.304 | 0.175 | 0.344 | 0.22 | 0.448 | 0.796 | 0.0596 | 0.339 |  |  |  |  |  |  |  | 
CC(C)[Si](CC1=CCCCC12C(=O)N(COCC[Si](C)(C)C)c1ccccc12)(C(C)C)C(C)C (stereo not drawn) | > 100 | > 100 |  | > 100 | > 100 | > 100 | > 100 | > 100 | > 100 |  |  |  |  |  |  |  | 
COc1ccc(C2=Nn3c(C)nnc3S/C2=C\c2ccc(-c3ccc([N+](=O)[O-])cc3)o2)cc1 | 28.3 | 25.6 | 26.1 | 28.5 | 88.7 | > 100 | > 100 | 39.5 |  |  |  |  |  |  |  |  | 
COc1ccc(-c2cc(-c3ccncc3)nc(N)c2-c2ccc(F)cc2)cc1 | > 100 | 46.8 | 51.7 | > 100 | > 100 | > 100 | > 100 | 57.6 | > 100 |  |  |  |  |  |  |  | 
Cc1nc2c(ccc3[nH]c4ccccc4c32)s1 | 41.2 | > 100 | 37.2 | 91.7 | > 100 | 46.5 |  | 79.4 | 45.4 |  |  |  |  |  |  |  | 
O=[N+]([O-])c1ccc(N/N=C\c2ccc(O)cc2O)nc1 |  | > 100 | > 100 | > 100 | > 100 | > 100 | > 100 | > 100 | > 100 | 3.07 | 2.11 | 3.39 | 3.4 | 38.3 | 2.96 | 0.797 | 2.69
